Test results published in patent publication US9969758B2, “Antimicrobial compounds” (BIOMERIEUX, priority 2014, dated 2018).
≈ marks a conversion by molar mass, not a printed value. Read-outs that look alike come from different tables or passages of the source.

How the values were obtained:
Assay in all cases: MIC by agar dilution
[1] = tested on: K. pneumoniae (87); assay type: cell-based, Klebsiella pneumoniae
Text: (§1) Bacterial isolates. […] These included Citrobacter freundii (n=5), other species of Citrobacter (n=4), Enterobacter aerogenes (n=1), Enterobacter cloacae (n=27), Escherichia coli (n=53), Klebsiella oxytoca (n=5), Klebsiella pneumoniae (n=87), Kluyvera spp (n=1), Proteus mirabilis (n=8), Providencia rettgeri (n=2), Salmonella spp (n=3), and Serratia marcescens (n=1). Among these 197 isolates, there were 128 (65%) carbapenemase producers, including; 87 with NDM-1, 9 with IMP, 11 with KPC, 14 with OXA-48 and 7 with VIM. The majority of the carbapenemase producers jointly produced broad-spectrum β-lactamases (BSBL) or cephalosporinases (AmpC β-lactamases), but the latter are not documented for the sake of clarity.
(§2) Determining the minimum inhibitory concentrations (MIC). All the MICs were determined using an agar dilution method. This required use of a medium without a defined antagonist (peptone-free), prepared as described previously with the inclusion of 2% horse blood lysed with saponin, 25.0 μg/mL of NAD and 25.0 μg/mL of hemin [17]. The compounds tested were dissolved in sterile deionised water and incorporated into the agar medium in a concentration range of 0.0031 to 8.0 μg/mL (0.016 to 32 μg/mL for gram-positive bacteria). All the isolates were prepared at a density equivalent to 0.5 McFarland units in sterile deionised water using a densitometer (approximately 1.5×10^8 CFU/mL), and then diluted to 1 for 15. An aliquot of 1 μL of each diluted suspension was then placed onto plates with a multispot inoculator to give the final recommended inoculation of 10 000 CFU/spot. The MICs of fosfomycin were determined by the same method, except that the IsoSensitest medium (Oxoid, Basingstoke, United Kingdom) was used, plus 25.0 μg/mL of glucose-6-phosphate (Sigma, Poole, United Kingdom) and an extended range of fosfomycin concentrations. All the dishes (including the antimicrobial-free controls) were incubated for 22 hours at 37° C. All the tests were performed on at least two independent replicates in order to examine the reproducibility.

[2] = tested on: E. coli (53); assay type: cell-based, Escherichia coli
Text: as §1, §2

[3] = tested on: E. faecium (34); assay type: cell-based, Enterococcus faecium
Text: (§3) A collection of 50 isolates of Staphylococci aureus included 36 strains of methicillin-resistant S. aureus (MRSA) frequently encountered in Europe, including strains isolated in Belgium, Finland, France, Germany and the United Kingdom. Another strain of MRSA, NCTC 11939, was included as a control, as well as a methicillin-sensitive control (NCTC 6571). Twelve other isolates of methicillin-sensitive Staphylococcus aureus (MSSA) recently collected from blood cultures were also included. Finally, 50 isolates of enterococci included two control strains (Enterococcus faecalis NCTC 755 and Enterococcus faecium NCTC 7171) and 48 isolates originating from clinical samples obtained from at least three different hospitals. The clinical isolates included E. faecalis (n=10), E. faecium (n=33), Enterococcus casseliflavus (n=3), Enterococcus gallinarum (n=2).
as §2

[4] = tested on: Enterobacteriaceae (197); assay type: cell-based
Text: as §1, §2

[5] = tested on: carbapenemase-producing Enterobacteriaceae; assay type: cell-based
Text: as §1, §2

[6] = tested on: Enterobacteriaceae with a broad-spectrum β-lactamase; assay type: cell-based
Text: as §1, §2

[7] = tested on: methicillin-sensitive Staphylococcus aureus; assay type: cell-based
Text: as §3, §2

[8] = tested on: glycopeptide-resistant enterococci; assay type: cell-based
Text: as §3, §2

[9] = tested on: methicillin-resistant Staphylococcus aureus; assay type: cell-based
Text: as §3, §2

[10] = tested on: All Enterococci (50); assay type: cell-based
Text: as §3, §2

[11] = tested on: E. faecalis (11); assay type: cell-based, Enterococcus faecalis
Text: as §3, §2

[12] = tested on: AmpC (22); assay type: cell-based, Enterobacteriaceae
Text: as §1, §2

[13] = tested on: All S. aureus (50); assay type: cell-based, Staphylococcus aureus
Text: as §3, §2

[14] = tested on: E. cloacae (27); assay type: cell-based, Enterobacter cloacae
Text: as §1, §2

[15] = read-out: Modal MIC (most frequent MIC)

What does the source list for `C[C@H](N)C(=O)N[C@@H](C)C(=O)N[C@@H](C)P(=O)(O)O` [Di-alanyl fosfalin, L-alanyl-L-alanyl-L-1-aminoethylphosphonic acid]?
MIC50 ([1]; K. pneumoniae (87)): >8 µg/mL; MIC90 ([1]; K. pneumoniae (87)): >8 µg/mL; Modal MIC (most frequent MIC) ([1]; K. pneumoniae (87)): >8 µg/mL; MIC50 ([2]; E. coli (53)): 0.5 µg/mL (≈ 1.87 µM); MIC90 ([2]; E. coli (53)): 2 µg/mL (≈ 7.48 µM); Modal MIC (most frequent MIC) ([2]; E. coli (53)): 0.25 µg/mL; concentration by which all isolates were inhibited ([3]; 34 E. faecium isolates (including 31 vancomycin-resistant)): 4 µg/mL; MIC50 ([3]; E. faecium (34)): 0.5 µg/mL (≈ 1.87 µM); MIC90 ([3]; E. faecium (34)): 2 µg/mL (≈ 7.48 µM); MIC Range ([3]; E. faecium (34)): ≤0.016-4 ^ μg/mL; Modal MIC (most frequent MIC) ([3]; E. faecium (34)): 0.5 µg/mL; MIC50 ([4]; Enterobacteriaceae (197)): 8 µg/mL (≈ 29.9 µM); MIC90 ([4]; Enterobacteriaceae (197)): >8 µg/mL; Modal MIC (most frequent MIC) ([4]; Enterobacteriaceae (197)): >8 µg/mL; MIC50 ([5]; CPE (128)): 8 µg/mL (≈ 29.9 µM); MIC90 ([5]; CPE (128)): >8 µg/mL; Modal MIC (most frequent MIC) ([5]; CPE (128)): >8 µg/mL; MIC50 ([6]; BSBL (47)): 8 µg/mL (≈ 29.9 µM); MIC90 ([6]; BSBL (47)): >8 µg/mL; Modal MIC (most frequent MIC) ([6]; BSBL (47)): >8 µg/mL; MIC50 ([7]; MSSA (13)): 8 µg/mL (≈ 29.9 µM); MIC90 ([7]; MSSA (13)): 16 µg/mL (≈ 59.9 µM); MIC Range ([7]; MSSA (13)): 0.5 to 32 µg/mL; Modal MIC (most frequent MIC) ([7]; MSSA (13)): 16 µg/mL; MIC50 ([8]; GRE (43)): 0.5 µg/mL (≈ 1.87 µM); MIC90 ([8]; GRE (43)): >32 µg/mL; Modal MIC (most frequent MIC) ([8]; GRE (43)): 0.5 µg/mL; MIC50 ([9]; MRSA (37)): 8 µg/mL (≈ 29.9 µM); MIC90 ([9]; MRSA (37)): 16 µg/mL (≈ 59.9 µM); MIC Range ([9]; MRSA (37)): 0.5 to 32 µg/mL; Modal MIC (most frequent MIC) ([9]; MRSA (37)): 4 µg/mL; MIC50 ([10]; All Enterococci (50)): 0.5 µg/mL (≈ 1.87 µM); MIC90 ([10]; All Enterococci (50)): 2 µg/mL (≈ 7.48 µM); Modal MIC (most frequent MIC) ([10]; All Enterococci (50)): 0.5 µg/mL; MICs lower than those of alafosfalin, in certain cases ([10]; enterococci): 256 times; MICs lower than those of alafosfalin, on average ([10]; enterococci): ~16 times; MIC50 ([11]; E. faecalis (11)): 0.063 µg/mL (≈ 0.236 µM); MIC90 ([11]; E. faecalis (11)): 0.5 µg/mL (≈ 1.87 µM); Modal MIC (most frequent MIC) ([11]; E. faecalis (11)): 0.031 µg/mL; MIC50 ([12]; AmpC (22)): >8 µg/mL; MIC90 ([12]; AmpC (22)): >8 µg/mL; Modal MIC (most frequent MIC) ([12]; AmpC (22)): >8 µg/mL; MIC50 ([13]; All S. aureus (50)): 8 µg/mL (≈ 29.9 µM); MIC90 ([13]; All S. aureus (50)): 16 µg/mL (≈ 59.9 µM); MIC Range ([13]; All S. aureus (50)): 0.5 to 32 µg/mL; Modal MIC (most frequent MIC) ([13]; All S. aureus (50)): 4 µg/mL; MIC50 ([14]; E. cloacae (27)): >8 µg/mL; MIC90 ([14]; E. cloacae (27)): >8 µg/mL; Modal MIC (most frequent MIC) ([14]; E. cloacae (27)): 4 µg/mL

Which results are given for `N[C@@H](CCl)C(=O)N[C@@H](CCl)C(=O)O` [β-Cl-Ala-β-Cl-Ala, β-chloro-L-alanyl-β-chloro-L-alanine]?
MIC50 ([1]; Klebsiella pneumoniae): > 8 µg/mL; MIC90 ([1]; Klebsiella pneumoniae): > 8 µg/mL; MIC ([1]; Klebsiella pneumoniae, read-out: Modal MIC (most frequent MIC)): > 8 µg/mL; MIC50 ([2]; Escherichia coli): 8 µg/mL (≈ 34.9 µM); MIC90 ([2]; Escherichia coli): > 8 µg/mL; MIC ([2]; Escherichia coli, read-out: Modal MIC (most frequent MIC)): 8 µg/mL (≈ 34.9 µM); MIC50 ([3]; Enterococcus faecium): 16 µg/mL (≈ 69.8 µM); MIC90 ([3]; Enterococcus faecium): 32 µg/mL (≈ 140 µM); MIC ([3]; Enterococcus faecium, read-out: Modal MIC (most frequent MIC)): 16 µg/mL (≈ 69.8 µM); MIC50 [4]: > 8 µg/mL; MIC90 [4]: > 8 µg/mL; MIC [4, 15]: > 8 µg/mL; MIC50 [5]: > 8 µg/mL; MIC90 [5]: > 8 µg/mL; MIC [5, 15]: > 8 µg/mL; MIC50 [6]: > 8 µg/mL; MIC90 [6]: > 8 µg/mL; MIC [6, 15]: > 8 µg/mL; MIC Range ([7]; MSSA (13)): 0.5 to 2 µg/mL; MIC50 ([7]; Staphylococcus aureus, MSSA): 1 µg/mL (≈ 4.37 µM); MIC90 ([7]; Staphylococcus aureus, MSSA): 2 µg/mL (≈ 8.73 µM); MIC ([7]; Staphylococcus aureus, MSSA, read-out: Modal MIC (most frequent MIC)): 1 µg/mL (≈ 4.37 µM); MIC50 [8]: 16 µg/mL (≈ 69.8 µM); MIC90 [8]: > 32 µg/mL; MIC [8, 15]: 16 µg/mL (≈ 69.8 µM); MIC Range ([9]; MRSA (37)): 0.125 to 16 µg/mL; MIC50 ([9]; Staphylococcus aureus, MRSA): 2 µg/mL (≈ 8.73 µM); MIC90 ([9]; Staphylococcus aureus, MRSA): 4 µg/mL (≈ 17.5 µM); MIC ([9]; Staphylococcus aureus, MRSA, read-out: Modal MIC (most frequent MIC)): 2 µg/mL (≈ 8.73 µM); MIC50 [10]: 16 µg/mL (≈ 69.8 µM); MIC90 [10]: 32 µg/mL (≈ 140 µM); MIC Range ([10]; All Enterococci (50)): 2 to 16 µg/mL; MIC [10, 15]: 16 µg/mL (≈ 69.8 µM); MIC Range ([11]; E. faecalis (11)): 4 to 16 µg/mL; MIC50 ([11]; Enterococcus faecalis): 8 µg/mL (≈ 34.9 µM); MIC90 ([11]; Enterococcus faecalis): 16 µg/mL (≈ 69.8 µM); MIC ([11]; Enterococcus faecalis, read-out: Modal MIC (most frequent MIC)): 8 µg/mL (≈ 34.9 µM); MIC50 [12]: > 8 µg/mL; MIC90 [12]: > 8 µg/mL; MIC [12, 15]: > 8 µg/mL; MIC Range ([13]; All S. aureus (50)): 0.125 to 16 µg/mL; MIC50 ([13]; Staphylococcus aureus): 2 µg/mL (≈ 8.73 µM); MIC90 ([13]; Staphylococcus aureus): 4 µg/mL (≈ 17.5 µM); MIC ([13]; Staphylococcus aureus, read-out: Modal MIC (most frequent MIC)): 2 µg/mL (≈ 8.73 µM); MIC50 ([14]; Enterobacter cloacae): > 8 µg/mL; MIC90 ([14]; Enterobacter cloacae): > 8 µg/mL; MIC ([14]; Enterobacter cloacae, read-out: Modal MIC (most frequent MIC)): > 8 µg/mL
